Values joined by “and” are separate entries in the source; they are usually repeats but may differ in a detail not shown here. Equal entries are not always repeated. Where two headings read alike, the source gives them in different places.
System: DosRST regulon
Assay type: cell-based

SMILES: C[C@@H]1CC[C@H]2[C@@H](C)C(=O)O[C@@H]3O[C@]4(C)CC[C@@H]1[C@]32OO4 [HC101A, artemisinin, reference compound]
- downregulation of tgs1 gene (transcriptional profiling) (CDC1551, 40 μM, 6 days): ~100 fold
- Counts per million (CPM) WT_HC101A (gene MT0055): 35.17 CPM and 29.03 CPM
- log2 Fold change (gene MT0055): −1.288
- Counts per million (CPM) WT_HC101A (gene MT0062 (Rv0056 rp11)): 104.6 CPM and 99.67 CPM
- log2 Fold change (gene MT0062 (Rv0056 rp11)): −1.059
- log2 Fold change (gene MT0086 Rv0079): −1.314
- Counts per million (CPM) WT_HC101A (gene MT0105 (Rv0096 PPE)): 8.529 CPM and 7.796 CPM
- log2 Fold change (gene MT0105 (Rv0096 PPE)): −1.583
- Counts per million (CPM) WT_HC101A (gene MT0106 (Rv0097)): 24.38 CPM and 21.53 CPM
- log2 Fold change (gene MT0106 (Rv0097)): −1.646
- Counts per million (CPM) WT_HC101A (gene MT0107 (Rv0098)): 11.7 CPM and 9.891 CPM
- log2 Fold change (gene MT0107 (Rv0098)): −1.652
- Counts per million (CPM) WT_HC101A (gene MT0108 (Rv0099 fadD10)): 39.35 CPM and 32.64 CPM
- log2 Fold change (gene MT0108 (Rv0099 fadD10)): −1.057
- Counts per million (CPM) WT_HC101A (gene MT0117): 157.5 CPM and 202.6 CPM
- log2 Fold change (gene MT0117): −1.008
- Counts per million (CPM) WT_HC101A (gene MT0122 (Rv0113 gmhA)): 36.48 CPM and 25.54 CPM
- log2 Fold change (gene MT0122 (Rv0113 gmhA)): −1.031
- Counts per million (CPM) WT_HC101A (gene MT0124): 5.295 CPM and 3.898 CPM
- log2 Fold change (gene MT0124): −1.954
- Counts per million (CPM) WT_HC101A (gene MT0175 (Rv0166 fadD5)): 67.07 CPM and 45.73 CPM
- log2 Fold change (gene MT0175 (Rv0166 fadD5)): −1.959
- Counts per million (CPM) WT_HC101A (gene MT0176): 118.5 CPM and 96.7 CPM
- log2 Fold change (gene MT0176): −1.284
- Counts per million (CPM) WT_HC101A (gene MT0178 (Rv0169 mcel)): 178.5 CPM and 133.6 CPM
- log2 Fold change (gene MT0178 (Rv0169 mcel)): −1.664
- log2 Fold change (gene MT0179 (Rv0170)): −1.755
- log2 Fold change (gene MT0180 (Rv0171)): −1.645
- log2 Fold change (gene MT0181 (Rv0172)): −1.502
- log2 Fold change (gene MT0182 (Rv0173 IprK)): −1.638
- log2 Fold change (gene MT0183 (Rv0174)): 1.264
- log2 Fold change (gene MT0241 (Rv0231 fadE4)): −1.266
- log2 Fold change (gene MT0244 (Rv0233 nrdB)): −1.533
- log2 Fold change (gene MT0329 (Rv0315)): −1.589
- log2 Fold change (gene MT0417): −1.313
- log2 Fold change (gene MT0423 (Rv0410c pknG)): −1.948
- log2 Fold change (gene MT0424 (Rv0411c glnH)): −1.654
- log2 Fold change (gene MT0425 (Rv0412c)): −1.504
- log2 Fold change (gene MT0429 (Rv0416)): −1.414
- log2 Fold change (gene MT0434): −1.079
- log2 Fold change (gene MT0524): −1.085
- log2 Fold change (gene MT0595 Rv0569): −2.701
- log2 Fold change (gene MT0596 Rv0570 nrdZ): −4.516
- log2 Fold change (gene MT0597 Rv0571c): −2.001
- log2 Fold change (gene MT0599 Rv0572c): −3.648
- log2 Fold change (gene MT0600): −4.304
- log2 Fold change (gene MT0601 Rv0573c): −2.988
- log2 Fold change (gene MT0602 Rv0574c): −3.56
- log2 Fold change (gene MT0637 (Rv0608)): −1.073
- log2 Fold change (gene MT0735 (Rv0708 rplP)): −1.134
- log2 Fold change (gene MT0736 (Rv0709 rpmC)): −1.065
- log2 Fold change (gene MT0741): −1.181
- log2 Fold change (gene MT0741.1 (Rv0715 rplX)): −1.23
- log2 Fold change (gene MT0742.1 (Rv0717 rpsN)): −1.057
- log2 Fold change (gene MT0747 (Rv0722 rpmD)): −1.393
- log2 Fold change (gene MT0846 Rv0824c desA1): −1.662
- log2 Fold change (gene MT0877 (Rv0854)): −1.066
- log2 Fold change (gene MT0898): −3.3
- log2 Fold change (gene MT0908 (Rv0885)): −1.929
- log2 Fold change (gene MT0909 (Rv0886 fprB)): −1.498
- log2 Fold change (gene MT0911 (Rv0888)): −2.361
- log2 Fold change (gene MT1002 (Rv0974c accD2)): −1.787
- log2 Fold change (gene MT1019 (Rv0990c)): −1.168
- log2 Fold change (gene MT1020): −1.37
- log2 Fold change (gene MT1056 (Rv1037c)): −1.377
- log2 Fold change (gene MT1095 Rv1065): −1.172
- Counts per million (CPM) WT_HC101A (gene MT1823 (Rv1773c)): 189.6 CPM and 111.2 CPM
- log2 Fold change (gene MT1823 (Rv1773c)): −1.79
- Counts per million (CPM) WT_HC101A (gene MT1840 (Rv1791 PE)): 169.4 CPM and 147.4 CPM
- log2 Fold change (gene MT1840 (Rv1791 PE)): −1.118
- Counts per million (CPM) WT_HC101A (gene MT1850 (Rv1812c)): 69.36 CPM and 114.1 CPM
- log2 Fold change (gene MT1850 (Rv1812c)): −1.173
- log2 Fold change (gene MT1851 Rv1813c): −4.29
- Counts per million (CPM) WT_HC101A (gene MT1882 (Rv1834)): 28.5 CPM and 25.48 CPM
- log2 Fold change (gene MT1882 (Rv1834)): −1.56
- Counts per million (CPM) WT_HC101A (gene MT1932): 219.8 CPM and 285.7 CPM
- log2 Fold change (gene MT1932): −1.182
- Counts per million (CPM) WT_HC101A (gene MT1942): 74.52 CPM and 69.7 CPM
- log2 Fold change (gene MT1942): −1.048
- Counts per million (CPM) WT_HC101A (gene MT1943): 65.44 CPM and 61.15 CPM
- log2 Fold change (gene MT1943): −1.048
- Counts per million (CPM) WT_HC101A (gene MT1955 (Rv1904)): 88.58 CPM and 104.4 CPM
- log2 Fold change (gene MT1955 (Rv1904)): −1.006
- Counts per million (CPM) WT_HC101A (gene MT1959 (Rv1918c PPE)): 62.82 CPM and 65.51 CPM
- log2 Fold change (gene MT1959 (Rv1918c PPE)): −1.121
- Counts per million (CPM) WT_HC101A (gene MT1986 (Rv1936)): 47.53 CPM and 27.87 CPM
- log2 Fold change (gene MT1986 (Rv1936)): −2.373
- Counts per million (CPM) WT_HC101A (gene MT1987 (Rv1937)): 66.35 CPM and 34.04 CPM
- log2 Fold change (gene MT1987 (Rv1937)): −2.295
- Counts per million (CPM) WT_HC101A (gene MT1988 (Rv1938 cphB)): 24.12 CPM and 13.5 CPM
- log2 Fold change (gene MT1988 (Rv1938 cphB)): −2.344
- Counts per million (CPM) WT_HC101A (gene MT1989 (Rv1939)): 13.56 CPM and 7.389 CPM
- log2 Fold change (gene MT1989 (Rv1939)): −2.045
- Counts per million (CPM) WT_HC101A (gene MT2007): 22.23 CPM and 14.6 CPM
- log2 Fold change (gene MT2007): −1.243
- Counts per million (CPM) WT_HC101A (gene MT2016 (Rv1964)): 104.5 CPM and 57.78 CPM
- log2 Fold change (gene MT2016 (Rv1964)): −1.754
- Counts per million (CPM) WT_HC101A (gene MT2017): 43.41 CPM and 25.54 CPM
- log2 Fold change (gene MT2017): −2.544
- Counts per million (CPM) WT_HC101A (gene MT2018 (Rv1966 mce3)): 50.34 CPM and 26.88 CPM
- log2 Fold change (gene MT2018 (Rv1966 mce3)): −2.558
- Counts per million (CPM) WT_HC101A (gene MT2019 (Rv1967)): 52.89 CPM and 27.87 CPM
- log2 Fold change (gene MT2019 (Rv1967)): −2.496
- log2 Fold change (gene MT2020 Rv1968): −2.621
- Counts per million (CPM) WT_HC101A (gene MT2021 (Rv1969)): 23.73 CPM and 17.45 CPM
- log2 Fold change (gene MT2021 (Rv1969)): −1.799
- Counts per million (CPM) WT_HC101A (gene MT2022 (Rv1970 lprM)): 37.39 CPM and 24.44 CPM
- log2 Fold change (gene MT2022 (Rv1970 lprM)): −2.347
- Counts per million (CPM) WT_HC101A (gene MT2023 (Rv1971)): 53.54 CPM and 31.19 CPM
- log2 Fold change (gene MT2023 (Rv1971)): −2.293
- Counts per million (CPM) WT_HC101A (gene MT2024 (Rv1972)): 16.15 CPM and 10.41 CPM
- log2 Fold change (gene MT2024 (Rv1972)): −1.124
- Counts per million (CPM) WT_HC101A (gene MT2042.1): 19.87 CPM and 29.96 CPM
- log2 Fold change (gene MT2042.1): −1.522
- Counts per million (CPM) WT_HC101A (gene MT2050 (Rv2004c)): 234 CPM and 227.9 CPM
- log2 Fold change (gene MT2050 (Rv2004c)): −3.602
- Counts per million (CPM) WT_HC101A (gene MT2051 (Rv2005c)): 149.3 CPM and 179.3 CPM
- log2 Fold change (gene MT2051 (Rv2005c)): −3.859
- Counts per million (CPM) WT_HC101A (gene MT2052 (Rv1996)): 177.9 CPM and 195.4 CPM
- log2 Fold change (gene MT2052 (Rv1996)): −7.087
- Counts per million (CPM) WT_HC101A (gene MT2052 (Rv2006 otsB)): 122.8 CPM and 137.5 CPM
- log2 Fold change (gene MT2052 (Rv2006 otsB)): −2.478
- Counts per million (CPM) WT_HC101A (gene MT2053 (Rv1997 ctpF)): 70.21 CPM and 92.04 CPM
- log2 Fold change (gene MT2053 (Rv1997 ctpF)): 4.931
- log2 Fold change (gene MT2053 (Rv2007c fdxA)): −3.149
- Counts per million (CPM) WT_HC101A (gene MT2059 (Rv2003c)): 101.8 CPM and 119.9 CPM
- log2 Fold change (gene MT2059 (Rv2003c)): −2.726
- Counts per million (CPM) WT_HC101A (gene MT2079 (Rv2023c)): 11.24 CPM and 12.86 CPM
- log2 Fold change (gene MT2079 (Rv2023c)): −1.5
- Counts per million (CPM) WT_HC101A (gene MT2080): 28.31 CPM and 33.92 CPM
- log2 Fold change (gene MT2080): −1.521
- Counts per million (CPM) WT_HC101A (gene MT2086 (Rv2027c)): 56.35 CPM and 58.94 CPM
- log2 Fold change (gene MT2086 (Rv2027c)): −2.22
- log2 Fold change (gene MT2087 Rv2028c): −3.553
- Counts per million (CPM) WT_HC101A (gene MT2088): 91.91 CPM and 170.4 CPM
- log2 Fold change (gene MT2088): −4.873
- log2 Fold change (gene MT2089 Rv2030c): −4.16
- log2 Fold change (gene MT2090): −5.249
- log2 Fold change (gene MT2091 Rv2032): −4.893
- Counts per million (CPM) WT_HC101A (gene MT2156 (Rv2107 PE)): 20.07 CPM and 13.38 CPM
- log2 Fold change (gene MT2156 (Rv2107 PE)): −1.59
- Counts per million (CPM) WT_HC101A (gene MT2278 (Rv2220 glnAl)): 436.2 CPM and 385.9 CPM
- log2 Fold change (gene MT2278 (Rv2220 glnAl)): −1.475
- Counts per million (CPM) WT_HC101A (gene MT2304 (Rv2244 acpM)): 626.7 CPM and 987.4 CPM
- log2 Fold change (gene MT2304 (Rv2244 acpM)): −2.163
- log2 Fold change (gene MT2305 (Rv2245 kasA)): −1.728
- Counts per million (CPM) WT_HC101A (gene MT2306): 581.8 CPM and 834.9 CPM
- log2 Fold change (gene MT2306): −1.559
- log2 Fold change (gene MT2307 (Rv2247 accD6)): −1.121
- Counts per million (CPM) WT_HC101A (gene MT2329 (Rv2267c)): 24.25 CPM and 27 CPM
- log2 Fold change (gene MT2329 (Rv2267c)): −1.234

— patent publication US11717508B2, “Compounds, compositions, and methods for inhibiting bacterial growth” (priority 2016, dated 2023)
